In paper PMC9573696, “Experimental Examination of Solubility and Lipophilicity as Pharmaceutically Relevant Points of Novel Bioactive Hybrid Compounds” (Molecules, 2022):
Converted amounts (≈) assume the structure as drawn. Read-outs that look alike come from different tables or passages of the source.

What was measured:
[1] = test system: C. parapsilosis ATCC 22019; assay: In vitro antifungal activity, microbroth dilution (MIC); type: cell-based; conditions: for advantage over fluconazole: MIC ratio; for MIC: Lodderomyces parapsilosis
Description: (§1) The in vitro antifungal screening results of synthesized compounds was evaluated against three fungal strains: C. parapsilosis ATCC 22019, C. utilis 84, and C. glabrata 61L are summarized in Table 1.
(§2) The in vitro antifungal activity of the target compounds was measured by means of the minimal inhibitory concentrations (MIC) with fluconazole as the control drug. Procedure was carried out by the microbroth dilution method in 96-well plates according to the recommendations of the Clinical and Laboratory Standards Institute. The detailed information was reported previously. The investigated pathogenic species included C. parapsilosis ATCC 22019, C. utilis 84 and C. glabrata 61. The sensitivity was evaluated visually, after the incubation at 35 °C for 24 h and the value was compared with the growth density in the reference culture without the sample. Each test was conducted in triplicate.

[2] = test system: C. glabrata 61L; assay: as above; type: cell-based; conditions: for MIC: Nakaseomyces glabratus, 24 h
Description: as §1, §2

[3] = test system: C. utilis 84; assay: as above; type: cell-based
Description: as §1, §2

[4] = Thermodynamic functions of transfer 1-octanol/buffer pH 7.4; type: physicochemical; conditions: 298.15 K
Description: The temperature variation of the partition coefficient provides enthalpic and entropic contributions to the free energy of transfer. The thermodynamic transfer functions for hybrids I–III in the 1-octanol/buffer pH 7.4 system were calculated by Equations (12)–(16) and are summarized in Table 6. The standard Gibbs energy values for all the compounds are negative. Therefore, the transfer from the aqueous medium to the organic phase within the studied temperature range is thermodynamically favourable and spontaneous. The standard transfer enthalpies of all the studied compounds are positive, which means the process is endothermic. Energy is consumed during the transfer to overcome the hydrophobic effects in water (destruction of the molecule solvate shell structure), destruction of the solvent–solute interactions in the aqueous medium and creation of a cavity in the organic phase where the solute molecules can enter.
The standard change in Gibbs free energy of transfer (∆trG^o) from the buffer to the organic phase was calculated by Equation (14):∆trG^o = −RTlnP*o/b(14)
The standard change entropy of transfer (∆trS^o) is determined as follows:∆trS^o = (∆trH^o − ∆trG^o)/T(15)

[5] = Partition in system 1-octanol/buffer pH 7.4, shake-flask method; type: physicochemical; conditions: for sb × 10^6 (concentration in buffer) / so × 10^3 (concentration in 1-octanol) / xb × 10^7 (mole fraction in buffer) / xo × 10^4 (mole fraction in 1-octanol) / logPo/b / sb × 10^5 (concentration in buffer): 1-octanol/buffer pH 7.4; for logPo/b / logD at 2 days: from concentrations in mol∙L^−1; for logP at 2 days: from concentrations in mole fraction
Description: The partition coefficients of the new hybrid compounds in the model system 1-octanol/buffer pH 7.4 as a lipophilicity surrogate were determined experimentally. […] It is the lipophilic properties that allow the hybrids to move from the water phase to the less hydrophilic octanol phase, where the solute–solvent intermolecular interactions are more favourable. According to the results shown in Table 5, the order of changes in the partition coefficients logPo/b at T = 298.15 K, depending on the substituent nature, is expressed as the inequality: Cl- (1.65) < F- (2.40) < CH3- (2.50). Compounds I and II are the most lipophilic in the series of the studied substances, whereas the introduction of a chlorine atom considerably lowers the partition coefficient (~0.8 log units). This fact agrees with the common concept that lipophilic groups are usually hydrocarbon or fluorine-containing radicals. […] For drugs with such partition coefficients, there is a good balance between the solubility and permeability through passive diffusion and minimum metabolism due to the low binding capacity with enzymes.
The octanol/buffer pH 7.4 partition coefficient logPO/B is measured in a static mode using the shake-flask method. The procedure has been presented as standard in the Organization for Economic Cooperation and Development (OECD) guidelines for testing chemicals. The equipment described above was also used for the determination of the 1-octanol/water partition coefficients. […] The correctness of the obtained value of each compound was verified by checking the mass balance of the starting amount of the compound and the total amount of the compound partitioned between the two phases.
To aim evaluated transfer (partition) thermodynamic functions, the 1-octanol/buffer partition coefficients P^* o/b as the ratio of equilibrium concentrations in the organic (xo) and aqueous phases (xb) expressed in mole fractions were calculated: P* o/b = xo/xb(12)

[6] = pH 7.4, 1-octanol/buffer pH 7.4, 293.15 K
[7] = pH 7.4, 1-octanol/buffer pH 7.4, 298.15 K
[8] = pH 7.4, 1-octanol/buffer pH 7.4, 303.15 K
[9] = pH 7.4, 1-octanol/buffer pH 7.4, 313.15 K
[10] = 1-octanol/buffer pH 7.4, pH 7.4, 1-octanol/buffer pH 7.4, 293.15 K
[11] = 1-octanol/buffer pH 7.4, pH 7.4, 1-octanol/buffer pH 7.4, 303.15 K
[12] = 1-octanol/buffer pH 7.4, pH 7.4, 1-octanol/buffer pH 7.4, 313.15 K

Row | SMILES | advantage over fluconazole ([1]; C. parapsilosis ATCC 22019) [fold] | T∆trS^o [4] [kcal/mol] | ∆trG^o [4] [kcal/mol] | ∆trH^o [4] [kcal/mol] | ∆trS^o [4] [J·mol^−1·K^−1] | so × 10^3 (concentration in 1-octanol) ([5]; 293.15 K) | xb × 10^7 (mole fraction in buffer) ([5]; 293.15 K) | xo × 10^4 (mole fraction in 1-octanol) ([5]; 293.15 K) | so × 10^3 (concentration in 1-octanol) ([5]; 298.15 K) | xb × 10^7 (mole fraction in buffer) ([5]; 298.15 K) | xo × 10^4 (mole fraction in 1-octanol) ([5]; 298.15 K) | so × 10^3 (concentration in 1-octanol) ([5]; 303.15 K) | xo × 10^4 (mole fraction in 1-octanol) ([5]; 303.15 K) | so × 10^3 (concentration in 1-octanol) ([5]; 308.15 K) | xb × 10^7 (mole fraction in buffer) ([5]; 308.15 K) | xo × 10^4 (mole fraction in 1-octanol) ([5]; 308.15 K) | logPo/b ([5]; 308.15 K) | so × 10^3 (concentration in 1-octanol) ([5]; 313.15 K) | xb × 10^7 (mole fraction in buffer) ([5]; 313.15 K) | xo × 10^4 (mole fraction in 1-octanol) ([5]; 313.15 K) | also measured
1 | Cc1ccc(-n2c(=S)sc3c(=O)n(CCCN4CCN(CC(O)(Cn5cncn5)c5ccc(F)cc5F)CC4)cnc32)cc1 (centres unmarked) [I, 6-[3-[4-[2-(2,4-difluorophenyl)-2-hydroxy-3-(1H-1,2,4-triazol-1-yl)propyl]-1-piperazinyl]propyl]-2,3-dihydro-3-(4-methylphenyl)-2-thioxo-thiazolo[4,5-d]pyrimidin-7(6H)-one] | 4 | 9.08 ± 0.22 | -4.68 ± 0.12 | 4.37 ± 0.072 | 127.4 ± 4.7 | 2.88 mol∙L^−1 (printed as so × 10^3 | 1.82 mole fraction (printed as xb × | 4.54 mole fraction (printed as xo × | 2.88 mol∙L^−1 (printed as so × 10^3 | 1.63 mole fraction (printed as xb × | 4.57 mole fraction (printed as xo × | 2.88 mol∙L^−1 (printed as so × 10^3 | 4.59 mole fraction (printed as xo × | 2.88 mol∙L^−1 (printed as so × 10^3 | 1.29 mole fraction (printed as xb × | 4.61 mole fraction (printed as xo × | 2.60 | 2.88 mol∙L^−1 (printed as so × 10^3 | 1.15 mole fraction (printed as xb × | 4.63 mole fraction (printed as xo × | MIC ([1]; ATCC22019, 24 h): 0.5 µg/mL (≈ 0.783 µM); MIC relative to the reference value (fluconazole) ([2]; C. glabrata 61L): four times less; MIC ([2]; 61L): 2 µg/mL (≈ 3.13 µM); MIC ([3]; Williopsis jadinii, 84, 24 h): 4 µg/mL (≈ 6.26 µM); sb × 10^6 (concentration in buffer) ([5]; 293.15 K): 10.2 mol∙L^−1 (printed as sb × 10^6; sb × 10^6 (concentration in buffer) ([5]; 298.15 K): 9.11 mol∙L^−1 (printed as sb × 10^6; sb × 10^6 (concentration in buffer) ([5]; 303.15 K): 7.95 mol∙L^−1 (printed as sb × 10^6; xb × 10^7 (mole fraction in buffer) ([5]; 303.15 K): 1.43 mole fraction (printed as xb ×; sb × 10^6 (concentration in buffer) ([5]; 308.15 K): 7.16 mol∙L^−1 (printed as sb × 10^6; sb × 10^6 (concentration in buffer) ([5]; 313.15 K): 6.38 mol∙L^−1 (printed as sb × 10^6; logP at 2 days [5, 6]: 3.39; logD at 2 days [5, 6]: 2.45; logP at 2 days [5, 7]: 3.44; logD at 2 days [5, 7]: 2.5; logP at 2 days [5, 8]: 3.5; logD at 2 days [5, 8]: 2.56; logP at 2 days ([5]; pH 7.4, 1-octanol/buffer pH 7.4, 308.15 K): 3.55; logP at 2 days [5, 9]: 3.6; logD at 2 days [5, 9]: 2.65
2 | O=c1c2sc(=S)n(-c3ccc(F)cc3)c2ncn1CCCN1CCN(CC(O)(Cn2cncn2)c2ccc(F)cc2F)CC1 (centres unmarked) [II, 6-[3-[4-[2-(2,4-difluorophenyl)-2-hydroxy-3-(1H-1,2,4-triazol-1-yl)propyl]-1-piperazinyl]propyl]-2,3-dihydro-3-(4-fluorophenyl)-2-thioxo-thiazolo[4,5-d]pyrimidin-7(6H)-one] | 20 | 7.62 ± 0.19 | -4.57 ± 0.072 | 3.06 ± 0.048 | 106.9 ± 2.9 | 3.39 mol∙L^−1 (printed as so × 10^3 | 2.67 mole fraction (printed as xb × | 5.34 mole fraction (printed as xo × | 3.39 mol∙L^−1 (printed as so × 10^3 | 2.45 mole fraction (printed as xb × | 5.37 mole fraction (printed as xo × | 3.39 mol∙L^−1 (printed as so × 10^3 | 5.39 mole fraction (printed as xo × | 3.39 mol∙L^−1 (printed as so × 10^3 | 2.08 mole fraction (printed as xb × | 5.42 mole fraction (printed as xo × | 2.47 | 3.39 mol∙L^−1 (printed as so × 10^3 | 1.94 mole fraction (printed as xb × | 5.44 mole fraction (printed as xo × | MIC ([1]; ATCC22019, C. parapsilosis ATCC 22019, 35 °C, 24 h, read-out: MIC): 0.1 µg/mL (≈ 0.156 µM); MIC ([2]; C. glabrata 61L, 35 °C, read-out: MIC): 4 µg/mL (≈ 6.22 µM); activity relative to fluconazole ([3]; C. utilis 84): 2 times; MIC ([3]; Williopsis jadinii, C. utilis 84, 35 °C, 24 h, read-out: MIC): 1 µg/mL (≈ 1.56 µM); logP at 2 days [5, 10]: 3.3; logD at 2 days [5, 10]: 2.36; logP at 2 days ([5]; 1-octanol/buffer pH 7.4, pH 7.4, 1-octanol/buffer pH 7.4, 298.15 K): 3.34; logP at 2 days [5, 11]: 3.37; logD at 2 days [5, 11]: 2.43; logP at 2 days ([5]; 1-octanol/buffer pH 7.4, pH 7.4, 1-octanol/buffer pH 7.4, 308.15 K): 3.41; logP at 2 days [5, 12]: 3.45; logD at 2 days [5, 12]: 2.5; sb × 10^5 (concentration in buffer) ([5]; 293.15 K): 1.47 mol∙L^−1 (printed as sb × 10^5; sb × 10^5 (concentration in buffer) ([5]; 298.15 K): 1.35 mol∙L^−1 (printed as sb × 10^5; logPo/b ([5]; 298.15 K): 2.40; sb × 10^5 (concentration in buffer) ([5]; 303.15 K): 1.25 mol∙L^−1 (printed as sb × 10^5; sb × 10^5 (concentration in buffer) ([5]; 308.15 K): 1.15 mol∙L^−1 (printed as sb × 10^5; sb × 10^5 (concentration in buffer) ([5]; 313.15 K): 1.06 mol∙L^−1 (printed as sb × 10^5
